Source: article doi:10.1101/2021.04.08.439011v1 (biorxiv, 2021)
Like-named read-outs stand apart in the source and are kept apart here.

How the values were obtained:
JAK1 = JAK1 (Homo sapiens, UniProt P23458); conditions: binder
MLK3 = MLK3 (Homo sapiens, UniProt Q16584); conditions: 1 µM; binder
AKT1 = AKT1 (Homo sapiens, UniProt P31749); conditions: 1 µM; binder
PIK3CA(E545K) = PIK3CA(E545K) (Homo sapiens, UniProt P42336, E545K); conditions: 1 µM; binder
JAK3 = JAK3 (Homo sapiens, UniProt P52333); conditions: JH1 domain catalytic; binder
ROS1 = ROS1 (Homo sapiens, UniProt P08922); conditions: 1 µM; binder
STK36 = STK36 (Homo sapiens, UniProt Q9NRP7); conditions: 1 µM; binder
TXK = TXK (Homo sapiens, UniProt P42681); conditions: 1 µM; binder
PAK1 = PAK1 (Homo sapiens, UniProt Q13153); conditions: 1 µM; binder
CAMK2B = CAMK2B (Homo sapiens, UniProt Q13554); conditions: 1 µM; binder
ABL2 = ABL2 (Homo sapiens, UniProt P42684); conditions: 1 µM; binder
ERBB4 = ERBB4 (Homo sapiens, UniProt Q15303); conditions: 1 µM; binder
ROCK1 = ROCK1 (Homo sapiens, UniProt Q13464); conditions: 1 µM; binder
AMPK-alpha1 = AMPK-alpha1 (Homo sapiens, UniProt Q13131); conditions: 1 µM; binder
MATK = MATK (Homo sapiens, UniProt P42679); conditions: 1 µM; binder
PFTAIRE2 = PFTAIRE2 (Homo sapiens, UniProt Q96Q40); conditions: 1 µM; binder
ACVRL1 = ACVRL1 (Homo sapiens, UniProt P37023); conditions: 1 µM; binder
MEK2 = MEK2 (Homo sapiens, UniProt P36507); conditions: 1 µM; binder
DCAMKL2 = DCAMKL2 (Homo sapiens, UniProt Q8N568); conditions: 1 µM; binder
SBK1 = SBK1 (Homo sapiens, UniProt Q52WX2); conditions: 1 µM; binder
FLT3(D835V) = FLT3(D835V) (Homo sapiens, UniProt P36888, D835V); conditions: 1 µM; binder
GSK3B = GSK3B (Homo sapiens, UniProt P49841); conditions: 1 µM; binder
MEK6 = MEK6 (Homo sapiens, UniProt P52564); conditions: 1 µM; binder
CDKL1 = CDKL1 (Homo sapiens, UniProt Q00532); conditions: 1 µM; binder
JNK1 = JNK1 (Homo sapiens, UniProt P45983); conditions: 1 µM; binder
MAP3K3 = MAP3K3 (Homo sapiens, UniProt Q99759); conditions: 1 µM; binder
RET(V804M) = RET(V804M) (Homo sapiens, UniProt P07949, V804M); conditions: 1 µM; binder
PIP4K2C = PIP4K2C (Homo sapiens, UniProt Q8TBX8); conditions: 1 µM; binder
KIT = KIT (Homo sapiens, UniProt P10721); conditions: 1 µM; binder
PIK3CB = PIK3CB (Homo sapiens, UniProt P42338); conditions: 1 µM; binder

Sequence of JAK1 (P23458 whole entry): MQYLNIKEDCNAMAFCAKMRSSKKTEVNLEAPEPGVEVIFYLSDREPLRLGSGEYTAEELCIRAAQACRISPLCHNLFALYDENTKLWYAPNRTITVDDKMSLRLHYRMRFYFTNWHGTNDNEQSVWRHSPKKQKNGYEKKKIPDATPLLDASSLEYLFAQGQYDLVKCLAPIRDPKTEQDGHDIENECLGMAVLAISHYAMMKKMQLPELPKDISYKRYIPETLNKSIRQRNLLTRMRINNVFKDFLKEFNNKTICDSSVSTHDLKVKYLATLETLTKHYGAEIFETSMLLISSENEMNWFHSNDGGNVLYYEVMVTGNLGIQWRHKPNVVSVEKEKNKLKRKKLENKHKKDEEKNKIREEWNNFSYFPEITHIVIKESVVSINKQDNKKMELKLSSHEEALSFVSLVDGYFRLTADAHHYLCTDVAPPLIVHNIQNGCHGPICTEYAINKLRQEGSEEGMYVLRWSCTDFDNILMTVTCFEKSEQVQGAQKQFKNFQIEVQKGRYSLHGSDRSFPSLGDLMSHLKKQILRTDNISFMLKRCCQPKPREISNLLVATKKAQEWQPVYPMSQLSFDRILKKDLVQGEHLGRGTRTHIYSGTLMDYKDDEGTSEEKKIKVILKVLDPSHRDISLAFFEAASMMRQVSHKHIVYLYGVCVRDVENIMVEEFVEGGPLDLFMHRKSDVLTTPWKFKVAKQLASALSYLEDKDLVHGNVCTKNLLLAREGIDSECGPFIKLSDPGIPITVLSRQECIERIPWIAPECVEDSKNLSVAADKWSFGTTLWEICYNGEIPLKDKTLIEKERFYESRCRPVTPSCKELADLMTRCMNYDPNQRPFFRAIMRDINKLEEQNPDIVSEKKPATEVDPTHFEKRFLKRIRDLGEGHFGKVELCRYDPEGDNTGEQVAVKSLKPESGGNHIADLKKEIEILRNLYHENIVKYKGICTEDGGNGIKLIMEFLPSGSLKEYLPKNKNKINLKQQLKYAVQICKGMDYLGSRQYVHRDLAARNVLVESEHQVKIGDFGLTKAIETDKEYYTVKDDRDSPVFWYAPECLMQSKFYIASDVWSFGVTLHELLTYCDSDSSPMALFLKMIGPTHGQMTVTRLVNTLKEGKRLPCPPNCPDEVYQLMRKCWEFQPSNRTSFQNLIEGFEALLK
Sequence of ACVRL1 (P37023 whole entry): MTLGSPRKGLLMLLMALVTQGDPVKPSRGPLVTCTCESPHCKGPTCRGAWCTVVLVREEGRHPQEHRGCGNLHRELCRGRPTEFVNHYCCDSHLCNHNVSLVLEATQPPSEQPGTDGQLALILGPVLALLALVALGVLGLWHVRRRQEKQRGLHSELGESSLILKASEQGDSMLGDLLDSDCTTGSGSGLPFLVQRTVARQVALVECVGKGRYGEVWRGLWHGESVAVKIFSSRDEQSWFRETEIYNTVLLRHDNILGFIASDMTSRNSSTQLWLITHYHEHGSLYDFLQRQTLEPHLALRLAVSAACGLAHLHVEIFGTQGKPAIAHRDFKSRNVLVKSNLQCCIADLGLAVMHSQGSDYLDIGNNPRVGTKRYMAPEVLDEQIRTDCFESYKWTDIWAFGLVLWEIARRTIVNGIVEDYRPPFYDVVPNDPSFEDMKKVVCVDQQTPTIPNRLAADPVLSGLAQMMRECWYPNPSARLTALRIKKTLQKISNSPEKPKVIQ
Sequence of MLK3 (Q16584 whole entry): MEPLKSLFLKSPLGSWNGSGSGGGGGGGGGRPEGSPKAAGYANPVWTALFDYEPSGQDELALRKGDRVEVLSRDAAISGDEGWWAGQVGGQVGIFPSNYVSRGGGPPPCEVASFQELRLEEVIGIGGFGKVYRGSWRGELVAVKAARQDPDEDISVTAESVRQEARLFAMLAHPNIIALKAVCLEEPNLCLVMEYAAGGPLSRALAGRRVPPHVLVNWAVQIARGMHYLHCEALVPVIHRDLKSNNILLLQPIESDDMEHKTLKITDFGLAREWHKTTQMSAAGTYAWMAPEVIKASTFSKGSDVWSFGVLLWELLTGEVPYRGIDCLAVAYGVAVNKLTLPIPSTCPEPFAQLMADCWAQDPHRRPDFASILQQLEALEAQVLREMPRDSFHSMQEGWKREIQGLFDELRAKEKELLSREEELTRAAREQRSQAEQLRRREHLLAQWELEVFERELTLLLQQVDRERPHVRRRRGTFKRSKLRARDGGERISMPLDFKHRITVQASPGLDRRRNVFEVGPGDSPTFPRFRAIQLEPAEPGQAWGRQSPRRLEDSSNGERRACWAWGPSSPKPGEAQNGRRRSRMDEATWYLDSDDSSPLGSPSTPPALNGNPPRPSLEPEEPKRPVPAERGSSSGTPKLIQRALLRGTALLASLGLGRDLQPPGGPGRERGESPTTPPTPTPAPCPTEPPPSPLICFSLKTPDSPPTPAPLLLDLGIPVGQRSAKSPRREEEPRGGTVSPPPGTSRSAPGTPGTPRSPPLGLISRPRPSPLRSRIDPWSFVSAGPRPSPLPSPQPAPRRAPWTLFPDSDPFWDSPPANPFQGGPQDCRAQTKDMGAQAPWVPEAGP
Sequence of ROCK1 (Q13464 whole entry): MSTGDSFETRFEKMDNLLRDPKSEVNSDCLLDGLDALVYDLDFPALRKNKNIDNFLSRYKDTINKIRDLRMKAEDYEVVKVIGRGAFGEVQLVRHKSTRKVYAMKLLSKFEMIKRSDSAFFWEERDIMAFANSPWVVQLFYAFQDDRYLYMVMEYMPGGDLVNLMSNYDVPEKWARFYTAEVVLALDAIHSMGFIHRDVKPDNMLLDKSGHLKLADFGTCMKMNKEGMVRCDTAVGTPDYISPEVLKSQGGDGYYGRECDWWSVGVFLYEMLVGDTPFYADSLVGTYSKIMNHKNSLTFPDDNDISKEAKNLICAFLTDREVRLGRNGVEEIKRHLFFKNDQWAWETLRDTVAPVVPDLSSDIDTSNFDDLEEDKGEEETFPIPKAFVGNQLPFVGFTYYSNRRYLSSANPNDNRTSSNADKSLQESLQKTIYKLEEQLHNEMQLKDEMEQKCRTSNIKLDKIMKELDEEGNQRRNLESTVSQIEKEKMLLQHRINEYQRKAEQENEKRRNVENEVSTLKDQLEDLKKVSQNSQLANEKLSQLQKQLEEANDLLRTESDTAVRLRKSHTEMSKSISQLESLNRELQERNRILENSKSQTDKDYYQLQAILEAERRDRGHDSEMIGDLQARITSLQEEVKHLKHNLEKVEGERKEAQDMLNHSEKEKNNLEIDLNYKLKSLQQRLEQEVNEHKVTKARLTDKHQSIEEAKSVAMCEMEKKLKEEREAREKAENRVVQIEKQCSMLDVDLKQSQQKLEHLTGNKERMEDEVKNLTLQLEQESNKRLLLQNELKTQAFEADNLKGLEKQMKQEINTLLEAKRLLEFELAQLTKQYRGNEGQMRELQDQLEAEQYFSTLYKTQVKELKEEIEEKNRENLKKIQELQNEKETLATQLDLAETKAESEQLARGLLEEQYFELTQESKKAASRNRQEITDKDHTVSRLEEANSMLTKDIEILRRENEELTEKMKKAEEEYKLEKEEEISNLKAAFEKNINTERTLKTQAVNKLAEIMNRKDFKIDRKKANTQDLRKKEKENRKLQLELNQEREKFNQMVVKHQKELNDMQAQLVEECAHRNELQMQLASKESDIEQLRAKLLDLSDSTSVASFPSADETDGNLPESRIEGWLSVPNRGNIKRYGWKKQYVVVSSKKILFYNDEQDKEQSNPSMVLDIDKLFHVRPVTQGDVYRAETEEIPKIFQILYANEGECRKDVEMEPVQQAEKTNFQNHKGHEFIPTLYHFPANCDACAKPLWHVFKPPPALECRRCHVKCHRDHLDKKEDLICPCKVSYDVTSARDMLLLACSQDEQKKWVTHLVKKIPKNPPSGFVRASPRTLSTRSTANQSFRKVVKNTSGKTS
Sequence of PAK1 (Q13153 whole entry): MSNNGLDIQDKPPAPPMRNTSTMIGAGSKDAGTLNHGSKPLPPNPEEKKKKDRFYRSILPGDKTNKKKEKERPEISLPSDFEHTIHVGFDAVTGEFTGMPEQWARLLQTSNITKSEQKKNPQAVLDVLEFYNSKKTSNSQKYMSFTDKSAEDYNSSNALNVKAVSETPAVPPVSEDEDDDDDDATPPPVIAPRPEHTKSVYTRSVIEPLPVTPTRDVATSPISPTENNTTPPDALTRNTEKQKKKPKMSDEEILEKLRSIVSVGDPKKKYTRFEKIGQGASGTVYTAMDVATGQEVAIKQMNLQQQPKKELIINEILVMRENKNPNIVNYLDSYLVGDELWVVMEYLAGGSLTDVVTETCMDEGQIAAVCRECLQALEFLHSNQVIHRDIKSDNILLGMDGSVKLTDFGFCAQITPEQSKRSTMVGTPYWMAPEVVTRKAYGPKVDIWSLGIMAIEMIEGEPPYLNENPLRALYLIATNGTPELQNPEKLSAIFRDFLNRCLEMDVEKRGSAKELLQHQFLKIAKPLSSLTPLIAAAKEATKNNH
Sequence of MATK (P42679 whole entry): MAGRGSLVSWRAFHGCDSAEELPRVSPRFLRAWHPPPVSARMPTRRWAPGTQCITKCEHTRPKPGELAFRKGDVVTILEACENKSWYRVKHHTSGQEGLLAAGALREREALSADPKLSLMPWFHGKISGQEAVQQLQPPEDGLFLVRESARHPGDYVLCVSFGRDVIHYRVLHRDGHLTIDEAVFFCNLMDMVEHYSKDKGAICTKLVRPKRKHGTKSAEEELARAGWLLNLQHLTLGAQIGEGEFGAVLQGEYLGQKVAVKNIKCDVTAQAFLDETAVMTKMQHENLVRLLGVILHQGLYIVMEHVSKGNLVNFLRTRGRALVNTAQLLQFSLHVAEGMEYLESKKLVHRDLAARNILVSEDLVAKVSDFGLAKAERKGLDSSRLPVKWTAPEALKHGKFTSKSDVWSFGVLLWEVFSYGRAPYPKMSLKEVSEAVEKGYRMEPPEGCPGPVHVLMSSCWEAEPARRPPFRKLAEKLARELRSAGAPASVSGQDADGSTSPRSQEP

CNc1ncc2cc(-c3ccc(-c4cccc(C)n4)cc3Cl)c(=O)n(C[C@H]3OC[C@H](N)CO3)c2n1 [compound 6, G-5555]
Percent Control (JAK1; JH1 domain catalytic): 100% | Percent Control (JAK1; JH2 domain pseudokinase, 1 µM): 92% | Percent Control (MLK3): 100% | Percent Control (AKT1): 100% | Percent Control (PIK3CA(E545K)): 97% | Percent Control (JAK3): 90% | Percent Control (ROS1): 100% | Percent Control (STK36): 2.9% | Percent Control (TXK): 100% | Percent Control (PAK1): 4.5% | Percent Control (CAMK2B): 100% | Percent Control (ABL2): 100% | Percent Control (ERBB4): 100% | Percent Control (ROCK1): 100% | Percent Control (AMPK-alpha1): 40% | Percent Control (MATK): 100% | Percent Control (PFTAIRE2): 100% | Percent Control (ACVRL1): 100% | Percent Control (MEK2): 1.4% | Percent Control (DCAMKL2): 51% | Percent Control (SBK1): 100% | Percent Control (FLT3(D835V)): 67% | Percent Control (GSK3B): 100% | Percent Control (MEK6): 30% | Percent Control (CDKL1): 100% | Percent Control (JNK1): 41% | Percent Control (MAP3K3): 23% | Percent Control (RET(V804M)): 100% | Percent Control (PIP4K2C): 26% | Percent Control (KIT): 100% | Percent Control (PIK3CB): 97%
